Laboratory results: patent US20230085307A1, “PYRIDAZINONE COMPOUND AND HERBICIDE” (NISSAN CHEMICAL CORPORATION, priority 2019, published 2023)

Columns and labels:
late watergrass = assay: Test Example 1: herbicidal activity, application before weed generation under submerged conditions (Table 16, symbol A); type: in vivo, late watergrass (Echinochloa oryzicola); details: amount of applied herbicide 320 g/ha
Outline: (§1)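 Alluvial soil was flooded to 4 cm depth, weed seeds were sown mixed and 2.5-leaf rice seedlings were transplanted. On sowing day, the compound's emulsion, diluted in water to a set dose, was applied to the water surface. Plants grew at 25–30 °C and were scored 0–5 after three weeks.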

Japanese bulrush = assay: Test Example 1: herbicidal activity, application before weed generation under submerged conditions (Table 16, symbol B); type: in vivo, Japanese bulrush (Schoenoplectus juncoides); details: amount of applied herbicide 320 g/ha
Outline: as §1

oval-leafed pondweed = assay: Test Example 1: herbicidal activity, application before weed generation under submerged conditions (Table 16, symbol C); type: in vivo, oval-leafed pondweed (Monochoria vaginalis); details: amount of applied herbicide 320 g/ha
Outline: as §1

barnyard grass [1] = assay: Test Example 3: herbicidal effect by foliage application, Wagner pot (Table 18, symbol H); type: in vivo, barnyard grass (Echinochloa crus-galli)
Outline: (§2)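 Plants were sown in alluvial soil held under 0.1–0.5 cm standing water and grown 14 days in a greenhouse at 25–30 °C. An emulsifiable formulation, water-diluted to the set dose, was then sprayed onto the foliage, and effects were scored three weeks later using previously defined criteria.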

Chinese sprangletop = assay: Test Example 3: herbicidal effect by foliage application, Wagner pot (Table 18, symbol D); type: in vivo, chinese sprangletop (Leptochloa chinensis)
Outline: as §2

rice flat sedge = assay: Test Example 3: herbicidal effect by foliage application, Wagner pot (Table 18, symbol E); type: in vivo, rice flat sedge (Cyperus iria)
Outline: as §2

southern crabgrass [2] = assay: Test Example 4: herbicidal effect by soil treatment (Table 19, symbol F); type: in vivo, southern crabgrass (Digitaria ciliaris); details: amount of applied herbicide 320 g/ha
Outline: (§3)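 Soil-surface application: an emulsion agent diluted with water to the predetermined dose is sprayed uniformly over seeds lying under roughly 1.5 cm of sterilized diluvial soil. Boxes stay in a greenhouse at 25° C. to 30° C. Three weeks later, each species is graded on previously defined criteria.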

green foxtail [3] = assay: Test Example 4: herbicidal effect by soil treatment (Table 19, symbol G); type: in vivo, green foxtail (Setaria viridis); details: amount of applied herbicide 320 g/ha
Outline: as §3

barnyard grass [4] = assay: Test Example 4: herbicidal effect by soil treatment (Table 19, symbol H); type: in vivo, barnyard grass (Echinochloa crus-galli); details: amount of applied herbicide 320 g/ha
Outline: as §3

wild oat [5] = assay: Test Example 4: herbicidal effect by soil treatment (Table 19, symbol I); type: in vivo, wild oat (Avena fatua); details: amount of applied herbicide 320 g/ha
Outline: as §3

blackgrass [6] = assay: Test Example 4: herbicidal effect by soil treatment (Table 19, symbol J); type: in vivo, blackgrass (Alopecurus myosuroides); details: amount of applied herbicide 320 g/ha
Outline: as §3

Italian ryegrass [7] = assay: Test Example 4: herbicidal effect by soil treatment (Table 19, symbol K); type: in vivo, Italian ryegrass (Lolium multiflorum); details: amount of applied herbicide 320 g/ha
Outline: as §3

windgrass [8] = assay: Test Example 4: herbicidal effect by soil treatment (Table 19, symbol L); type: in vivo, windgrass (Apera spica-venti); details: amount of applied herbicide 320 g/ha
Outline: as §3

velvetleaf [9] = assay: Test Example 4: herbicidal effect by soil treatment (Table 19, symbol M); type: in vivo, velvetleaf (Abutilon theophrasti); details: amount of applied herbicide 320 g/ha
Outline: as §3

redroot pigweed [10] = assay: Test Example 4: herbicidal effect by soil treatment (Table 19, symbol N); type: in vivo, redroot pigweed (Amaranthus retroflexus); details: amount of applied herbicide 320 g/ha
Outline: as §3

lambsquarters [11] = assay: Test Example 4: herbicidal effect by soil treatment (Table 19, symbol O); type: in vivo, lambsquarters (Chenopodium album); details: amount of applied herbicide 320 g/ha
Outline: as §3

false cleavers = assay: Test Example 4: herbicidal effect by soil treatment (Table 19, symbol Q); type: in vivo, false cleavers (Galium spurium); details: amount of applied herbicide 320 g/ha
Outline: as §3

persian speedwell [12] = assay: Test Example 4: herbicidal effect by soil treatment (Table 19, symbol R); type: in vivo, Persian speedwell (Veronica persica); details: amount of applied herbicide 320 g/ha
Outline: as §3

southern crabgrass [13] = assay: Test Example 5: herbicidal effect by foliage application, plastic box (Table 20, symbol F); type: in vivo, southern crabgrass (Digitaria ciliaris); details: foliage application, 320 g/ha, three weeks after application
Outline: (§4)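 Sow seeds spot-wise in sterilized diluvial soil; cover with ~1.5 cm soil. Grow 14 days in greenhouse, 25° C. to 30° C. Spray foliage with emulsion diluted to predetermined amount. Rate effect after 3 weeks.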

green foxtail [14] = assay: Test Example 5: herbicidal effect by foliage application, plastic box (Table 20, symbol G); type: in vivo, green foxtail (Setaria viridis); details: foliage application, 320 g/ha, three weeks after application
Outline: as §4

barnyard grass [15] = assay: Test Example 5: herbicidal effect by foliage application, plastic box (Table 20, symbol H); type: in vivo, barnyard grass (Echinochloa crus-galli); details: foliage application, 320 g/ha, three weeks after application
Outline: as §4

wild oat [16] = assay: Test Example 5: herbicidal effect by foliage application, plastic box (Table 20, symbol I); type: in vivo, wild oat (Avena fatua); details: foliage application, 320 g/ha, three weeks after application
Outline: as §4

blackgrass [17] = assay: Test Example 5: herbicidal effect by foliage application, plastic box (Table 20, symbol J); type: in vivo, blackgrass (Alopecurus myosuroides); details: foliage application, 320 g/ha, three weeks after application
Outline: as §4

Italian ryegrass [18] = assay: Test Example 5: herbicidal effect by foliage application, plastic box (Table 20, symbol K); type: in vivo, Italian ryegrass (Lolium multiflorum); details: foliage application, 320 g/ha, three weeks after application
Outline: as §4

windgrass [19] = assay: Test Example 5: herbicidal effect by foliage application, plastic box (Table 20, symbol L); type: in vivo, windgrass (Apera spica-venti); details: foliage application, 320 g/ha, three weeks after application
Outline: as §4

velvetleaf [20] = assay: Test Example 5: herbicidal effect by foliage application, plastic box (Table 20, symbol M); type: in vivo, velvetleaf (Abutilon theophrasti); details: foliage application, 320 g/ha, three weeks after application
Outline: as §4

redroot pigweed [21] = assay: Test Example 5: herbicidal effect by foliage application, plastic box (Table 20, symbol N); type: in vivo, redroot pigweed (Amaranthus retroflexus); details: foliage application, 320 g/ha, three weeks after application
Outline: as §4

lambsquarters [22] = assay: Test Example 5: herbicidal effect by foliage application, plastic box (Table 20, symbol O); type: in vivo, lambsquarters (Chenopodium album); details: foliage application, 320 g/ha, three weeks after application
Outline: as §4

chickweed [23] = assay: Test Example 5: herbicidal effect by foliage application, plastic box (Table 20, symbol P); type: in vivo, common chickweed (Stellaria media); details: foliage application, 320 g/ha, three weeks after application
Outline: as §4

persian speedwell [24] = assay: Test Example 5: herbicidal effect by foliage application, plastic box (Table 20, symbol R); type: in vivo, Persian speedwell (Veronica persica); details: foliage application, 320 g/ha, three weeks after application
Outline: as §4

chickweed [25] = assay: Test Example 4: herbicidal effect by soil treatment (Table 19, symbol P); type: in vivo, common chickweed (Stellaria media); details: amount of applied herbicide 320 g/ha
Outline: as §3

[26] = amount of applied herbicide 320 g/ha

## Cc1nn(CC#N)c(=O)c(-c2c(-c3ccc(F)cc3)sc3ccc(F)cc23)c1O [2-430]
Late watergrass
  Herbicidal effect, A: late watergrass: 3 (Herbicidal rate of 40% or more and less than 70%)
Japanese bulrush
  Herbicidal effect, B: Japanese bulrush: 0 (Herbicidal rate of 5% or less (almost no effect))
oval-leafed pondweed
  Herbicidal effect, C: oval-leafed pondweed: 0 (Herbicidal rate of 5% or less (almost no effect))
Barnyard grass [1]; [26]
  herbicidal effect on H: barnyard grass: 2 (Herbicidal rate of 20% or more and less than 40%)
Chinese sprangletop; [26]
  herbicidal effect on D: Chinese sprangletop: 0 (Herbicidal rate of 5% or less (almost no effect))
Rice flat sedge; [26]
  herbicidal effect on E: rice flat sedge: 3 (Herbicidal rate of 40% or more and less than 70%)
Southern crabgrass [2]
  herbicidal effect, F: southern crabgrass: 0 (Herbicidal rate of 5% or less (almost no effect))
Green foxtail [3]
  herbicidal effect, G: green foxtail: 0 (Herbicidal rate of 5% or less (almost no effect))
Barnyard grass [4]
  herbicidal effect, H: barnyard grass: 0 (Herbicidal rate of 5% or less (almost no effect))
Wild oat [5]
  herbicidal effect, I: wild oat: 0 (Herbicidal rate of 5% or less (almost no effect))
Blackgrass [6]
  herbicidal effect, J: blackgrass: 0 (Herbicidal rate of 5% or less (almost no effect))
Italian ryegrass [7]
  herbicidal effect, K: Italian ryegrass: 0 (Herbicidal rate of 5% or less (almost no effect))
Windgrass [8]
  herbicidal effect, L: windgrass: 0 (Herbicidal rate of 5% or less (almost no effect))
Velvetleaf [9]
  herbicidal effect, M: velvetleaf: 2 (Herbicidal rate of 20% or more and less than 40%)
Redroot pigweed [10]
  herbicidal effect, N: redroot pigweed: 5 (Herbicidal rate of 90% or more (almost completely withered))
Lambsquarters [11]
  herbicidal effect, O: lambsquarters: 1 (Herbicidal rate of 5% or more and less than 20%)
False cleavers
  herbicidal effect, Q: false cleavers: 0 (Herbicidal rate of 5% or less (almost no effect))
Persian speedwell [12]
  herbicidal effect, R: persian speedwell: 0 (Herbicidal rate of 5% or less (almost no effect))
Southern crabgrass [13]
  F: southern crabgrass, herbicidal effect grade: 0 (Herbicidal rate of 5% or less (almost no effect))
Green foxtail [14]
  G: green foxtail, herbicidal effect grade: 2 (Herbicidal rate of 20% or more and less than 40%)
Barnyard grass [15]
  H: barnyard grass, herbicidal effect grade: 1 (Herbicidal rate of 5% or more and less than 20%)
Wild oat [16]
  I: wild oat, herbicidal effect grade: 0 (Herbicidal rate of 5% or less (almost no effect))
Blackgrass [17]
  J: blackgrass, herbicidal effect grade: 0 (Herbicidal rate of 5% or less (almost no effect))
Italian ryegrass [18]
  K: Italian ryegrass, herbicidal effect grade: 3 (Herbicidal rate of 40% or more and less than 70%)
Windgrass [19]
  L: windgrass, herbicidal effect grade: 0 (Herbicidal rate of 5% or less (almost no effect))
Velvetleaf [20]
  M: velvetleaf, herbicidal effect grade: 2 (Herbicidal rate of 20% or more and less than 40%)
Redroot pigweed [21]
  N: redroot pigweed, herbicidal effect grade: 3 (Herbicidal rate of 40% or more and less than 70%)
Lambsquarters [22]
  O: lambsquarters, herbicidal effect grade: 3 (Herbicidal rate of 40% or more and less than 70%)
Chickweed [23]
  P: chickweed, herbicidal effect grade: 5 (Herbicidal rate of 90% or more (almost completely withered))
Persian speedwell [24]
  R: persian speedwell, herbicidal effect grade: 4 (Herbicidal rate of 70% or more and less than 90%)

## CCCC(=O)Oc1c(C)nn(C)c(=O)c1-c1c(-c2ccc(F)cc2OC)sc2cc(OC)c(OC)cc12 [5-061]
Late watergrass
  Herbicidal effect, A: late watergrass: 5 (Herbicidal rate of 90% or more (almost completely withered))
Japanese bulrush
  Herbicidal effect, B: Japanese bulrush: 3 (Herbicidal rate of 40% or more and less than 70%)
oval-leafed pondweed
  Herbicidal effect, C: oval-leafed pondweed: 3 (Herbicidal rate of 40% or more and less than 70%)
Barnyard grass [1]; 320 g/ha
  herbicidal effect on barnyard grass (H): 5 (Herbicidal rate of 90% or more (almost completely withered))
Chinese sprangletop; 320 g/ha
  herbicidal effect on Chinese sprangletop (D): 3 (Herbicidal rate of 40% or more and less than 70%)
Rice flat sedge; 320 g/ha
  herbicidal effect on rice flat sedge (E): 4 (Herbicidal rate of 70% or more and less than 90%)
Southern crabgrass [2]
  F: southern crabgrass, herbicidal effect grade: 0 (Herbicidal rate of 5% or less (almost no effect))
Green foxtail [3]
  G: green foxtail, herbicidal effect grade: 0 (Herbicidal rate of 5% or less (almost no effect))
Barnyard grass [4]
  H: barnyard grass, herbicidal effect grade: 0 (Herbicidal rate of 5% or less (almost no effect))
Wild oat [5]
  I: wild oat, herbicidal effect grade: 0 (Herbicidal rate of 5% or less (almost no effect))
Blackgrass [6]
  J: blackgrass, herbicidal effect grade: 0 (Herbicidal rate of 5% or less (almost no effect))
Italian ryegrass [7]
  K: Italian ryegrass, herbicidal effect grade: 0 (Herbicidal rate of 5% or less (almost no effect))
Windgrass [8]
  L: windgrass, herbicidal effect grade: 0 (Herbicidal rate of 5% or less (almost no effect))
Velvetleaf [9]
  M: velvetleaf, herbicidal effect grade: 0 (Herbicidal rate of 5% or less (almost no effect))
Redroot pigweed [10]
  N: redroot pigweed, herbicidal effect grade: 0 (Herbicidal rate of 5% or less (almost no effect))
Lambsquarters [11]
  O: lambsquarters, herbicidal effect grade: 0 (Herbicidal rate of 5% or less (almost no effect))
Chickweed [25]
  P: chickweed, herbicidal effect grade: 3 (Herbicidal rate of 40% or more and less than 70%)
False cleavers
  Q: false cleavers, herbicidal effect grade: 0 (Herbicidal rate of 5% or less (almost no effect))
Persian speedwell [12]
  R: persian speedwell, herbicidal effect grade: 2 (Herbicidal rate of 20% or more and less than 40%)
Southern crabgrass [13]
  herbicidal effect on southern crabgrass (F): 4 (Herbicidal rate of 70% or more and less than 90%)
Green foxtail [14]
  herbicidal effect on green foxtail (G): 4 (Herbicidal rate of 70% or more and less than 90%)
Barnyard grass [15]
  herbicidal effect on barnyard grass (H): 4 (Herbicidal rate of 70% or more and less than 90%)
Wild oat [16]
  herbicidal effect on wild oat (I): 4 (Herbicidal rate of 70% or more and less than 90%)
Blackgrass [17]
  herbicidal effect on blackgrass (J): 4 (Herbicidal rate of 70% or more and less than 90%)
Italian ryegrass [18]
  herbicidal effect on Italian ryegrass (K): 4 (Herbicidal rate of 70% or more and less than 90%)
Windgrass [19]
  herbicidal effect on windgrass (L): 2 (Herbicidal rate of 20% or more and less than 40%)
Velvetleaf [20]
  herbicidal effect on velvetleaf (M): 0 (Herbicidal rate of 5% or less (almost no effect))
Lambsquarters [22]
  herbicidal effect on lambsquarters (O): 3 (Herbicidal rate of 40% or more and less than 70%)
Persian speedwell [24]
  herbicidal effect on persian speedwell (R): 5 (Herbicidal rate of 90% or more (almost completely withered))
